Measurements published in publication PMC7782499, “Progerinin, an optimized progerin-lamin A binding inhibitor, ameliorates premature senescence phenotypes of Hutchinson-Gilford progeria syndrome” (Communications Biology, 2021).

Columns and labels:
Lmna G609G/+ mouse = experiment: Life span of Lmna G609G/+ mice; assay type: in vivo
Text: Fig. 3 In vivo favorable effect of SLC-D011. A Gross morphology of Lmna^G609G/G609G mice (10 weeks old) was ameliorated after injection with SLC-D011. At the same age, the experimental group (D011) of mice were larger than vehicle-injected control (Con) subjects regardless of gender. B, C SLC-D011 increases body weight B and extends life span C of Lmna^G609G/G609G progeria model mouse (Con: n = 8; SLC-D011: n = 8). Compared with 14.8 weeks of average (ave) life span with maximum (max) life span of 15.5 weeks, 20 mg/kg of intraperitoneal (i.p) injection (twice a week) of SLC-D011 could extend the life span upto 19 weeks (max = 21 weeks). Lmna^G609G/G609G mice were injected with SLC-D011 from age of 5-week old, *p < 0.05. D Gross morphology of SLC-D011 injected Lmna^G609G/+ mouse. […] E SLC-D011 increases body weights of Lmna^G609G/+ mice (Con: n = 10; SLC-D011: n = 11), *p < 0.05. F Favorable effect of SLC-D011 on life span of Lmna^G609G/+ mice. Compared with vehicle-injected control group (ave = 46.7 weeks and max = 48 weeks), SLC-D011 treatment obviously extended the average life span to 63 weeks (max = 64 weeks). The injection was started from 32 weeks old, **p < 0.001. “Con” means vehicle (a solvent composed of DMSO and PBS)-injected mouse group. TEXT PRINTED IN THE PICTURE: (C) D011: Kaplan-Meier survival curve in Lmna^G609G/G609G: Ave=19; Kaplan-Meier survival curve in Lmna^G609G/G609G: Max=21 | (F) D011: Kaplan-Meier survival curve in Lmna^G609G/+: Ave=63; Kaplan-Meier survival curve in Lmna^G609G/+: Max=64 DOUBTS OF THE COPYIST ABOUT THIS PICTURE: Panels C and F: the Ave/Max labels are not printed with a group name. They are assigned to D011 (solid curve) or Con (dashed curve) only by their position beside the curves. / Panel C Ave=14.8, Max=15.5 and panel F Ave=46.7, Max=48 stand beside the dashed Con curve. They are left out because Con is the control group, not a substance. / No unit is printed with the Ave/Max values. Only the axis reads Age (weeks).
Animal experiments were performed in a facility certified by the Association for Assessment and Accreditation of Laboratory Animal Care in compliance with animal policies approved by Pusan National University. The mouse work was performed under the study protocol PNU-2019-2181, as approved by the Institutional Animal Care and Use Committee. Lmna^G609G/609G mice were generated by timed mating of heterozygous Lmna^G609G/+ provided by Carlos López-Otín (Universidad de Oviedo, Asturias, Oviedo, Spain). SLC-D011 was mixed with dimethyl sulfoxide (DMSO) and phosphate-buffered saline (PBS). It was then intraperitoneally injected into mice (20 mg/kg twice per week from 5-week-old). SLC-D011 and lonafarnib were orally administrated to mice daily at a concentration of 10 mg/ml in monoolein-based solution. Lonafarnib was generously provided by Merck, the Progeria Research Foundation (PRF) and the PRF Lonafarnib Pre-clinical Drug Supply Program. Control mice were treated with monoolein-based solution alone in the same way. Lmna^G609G/609G mice were treated with clear chemical solution throughout the life span, starting from 5 weeks of age. Lmna^G609G/+ mice were treated via intraperitoneal and oral administrations, starting from 32 weeks of age.
Fig. S10. Or al administration of SLC-D011 suppresses premature aging features of LmnaG609G/+ mi c e . A.
Gross morphology of SLC-D011 treated Lmna G609G/+ mice at 36 weeks old. […]

[1] = molecular target: hERG (human Ether-à-go-go-Related Gene) (Homo sapiens, UniProt Q12809); experiment: hERG inhibition; assay type: in vitro ADME
Sequence of hERG (human Ether-à-go-go-Related Gene) (Q12809 whole entry): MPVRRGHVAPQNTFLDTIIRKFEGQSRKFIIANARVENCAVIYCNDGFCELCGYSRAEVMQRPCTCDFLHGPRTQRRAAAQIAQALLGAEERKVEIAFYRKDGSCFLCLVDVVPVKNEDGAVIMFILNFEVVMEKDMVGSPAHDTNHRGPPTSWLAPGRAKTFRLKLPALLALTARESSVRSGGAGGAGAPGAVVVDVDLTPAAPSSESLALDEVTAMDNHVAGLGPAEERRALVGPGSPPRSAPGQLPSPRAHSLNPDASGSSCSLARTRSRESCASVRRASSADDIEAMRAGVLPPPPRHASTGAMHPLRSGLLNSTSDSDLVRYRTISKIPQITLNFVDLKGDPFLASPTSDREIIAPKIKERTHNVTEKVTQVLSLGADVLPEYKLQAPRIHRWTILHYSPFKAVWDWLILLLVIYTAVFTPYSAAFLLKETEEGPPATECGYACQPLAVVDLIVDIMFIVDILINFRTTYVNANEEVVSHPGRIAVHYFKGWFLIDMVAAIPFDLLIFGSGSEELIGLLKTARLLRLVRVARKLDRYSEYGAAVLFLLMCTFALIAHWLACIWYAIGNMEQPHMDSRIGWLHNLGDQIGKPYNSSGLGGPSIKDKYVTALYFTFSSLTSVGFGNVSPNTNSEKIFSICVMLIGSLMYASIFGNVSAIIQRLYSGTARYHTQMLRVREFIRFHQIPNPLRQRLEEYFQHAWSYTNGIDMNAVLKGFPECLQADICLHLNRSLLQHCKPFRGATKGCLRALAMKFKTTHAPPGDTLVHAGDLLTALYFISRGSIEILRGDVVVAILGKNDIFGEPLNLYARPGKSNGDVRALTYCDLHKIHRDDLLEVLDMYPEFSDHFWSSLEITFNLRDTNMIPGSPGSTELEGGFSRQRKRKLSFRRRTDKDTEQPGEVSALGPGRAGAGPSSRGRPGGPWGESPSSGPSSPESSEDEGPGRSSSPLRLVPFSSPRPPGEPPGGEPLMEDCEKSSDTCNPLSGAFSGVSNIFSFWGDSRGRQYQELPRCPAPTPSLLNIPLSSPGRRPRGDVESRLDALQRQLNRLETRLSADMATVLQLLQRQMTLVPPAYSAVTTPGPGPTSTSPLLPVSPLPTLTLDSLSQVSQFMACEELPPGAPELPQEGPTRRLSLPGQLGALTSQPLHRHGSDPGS
Protocol: At pre-set time-points, blood concentration of JH4 was determined by LC-MS/MS analysis[22],[23]. Other chemicals were also tested using similar protocol. In vitro ADME studies (plasma protein binding, CYP inhibition, microsomal stability, plasma stability, and hERG inhibition) were performed by New Drug Development Center (Daegu, Korea) using standard protocols[24],[25].

For `CC1(C)Oc2cc3oc(=O)ccc3cc2C[C@@H]1OC/C=C/c1ccccc1` [SLC-D011], the Average life span (Lmna G609G/+ mouse; i.p. injection from 32 weeks old) was 63 weeks, the “Extension of life span” value (Lmna G609G/+ mouse; i.p. injection, longer than control (untreated)) was ~ 16 weeks and the Maximum life span (Lmna G609G/+ mouse; oral 50 mg/kg daily) was 65.5 weeks. For the same compound, the Average life span (Lmna G609G/+ mouse; oral 50 mg/kg daily, 50 mg/kg) was 64.9 weeks, the Average life span (Lmna G609G/+ mouse; oral 50 mg/kg daily, listed as progerinin, 50 mg/kg) was 65 weeks and the “hERG inhibition (in words)” value [1] was “without severe hERG inhibition”. For the same compound, the “hERG inhibition: % Inhibition” value ([1]; Conc: 1uM) was 14.673±4.74% and the “hERG inhibition: % Inhibition” value ([1]; Conc: 10uM) was 66.31±16.77%.
